The supplement of paper PMC10307832

Columns and labels:
Experiment in all cases: relative viability (nuclei count vs DMSO), 5 days (fraction); higher = more cells survive
DM3189 = compound: C1CN(CCN1)C2=CC=C(C=C2)C3=CN4C(=C(C=N4)C5=CC=NC6=CC=CC=C56)N=C3 [DM3189]
How it was run: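 Acceptance criteria were a control CV below 25% and at least one doubling per plate. Lung cancer cell lines in 1536-well plates got five library-drug doses (not always all listed) √10 apart by pinning and were left 5 days with no medium change. Viability divides treated-well nuclei by vehicle-well nuclei and is the median across plates. Nuclei were counted by MetaXpress from 4× Hoechst images.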

DM3189 + Luminespib = compound: C1CN(CCN1)C2=CC=C(C=C2)C3=CN4C(=C(C=N4)C5=CC=NC6=CC=CC=C56)N=C3 [DM3189] + CCNC(=O)c1noc(-c2cc(C(C)C)c(O)cc2O)c1-c1ccc(CN2CCOCC2)cc1 [Luminespib] (partner 0.01 µM)
How it was run: (§1)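 Lung cancer cell lines were pin-tool dosed in 1536-well plates on the day after seeding, with either a lone drug or a fixed anchor-drug dose plus five library-drug doses (not always all listed) in √10 steps. Nuclei were counted on 4× images after 5 days. Relative viability is the ratio of treated-well to vehicle-well nuclei counts, with each value a median of duplicate plates.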

DM3189 + Foretinib = compound: C1CN(CCN1)C2=CC=C(C=C2)C3=CN4C(=C(C=N4)C5=CC=NC6=CC=CC=C56)N=C3 [DM3189] + COc1cc2c(Oc3ccc(NC(=O)C4(C(=O)Nc5ccc(F)cc5)CC4)cc3F)ccnc2cc1OCCCN1CCOCC1 [Foretinib] (partner 0.25 µM)
How it was run: as §1

DM3189 + OSI-027 = compound: C1CN(CCN1)C2=CC=C(C=C2)C3=CN4C(=C(C=N4)C5=CC=NC6=CC=CC=C56)N=C3 [DM3189] + COc1cccc2cc(-c3nc([C@H]4CC[C@H](C(=O)O)CC4)n4ncnc(N)c34)[nH]c12 [OSI-027] (partner 0.5 µM)
How it was run: as §1

DM3189 + Tozasertib = compound: C1CN(CCN1)C2=CC=C(C=C2)C3=CN4C(=C(C=N4)C5=CC=NC6=CC=CC=C56)N=C3 [DM3189] + Cc1cc(Nc2cc(N3CCN(C)CC3)nc(Sc3ccc(NC(=O)C4CC4)cc3)n2)n[nH]1 [Tozasertib] (partner 0.1 µM)
How it was run: as §1

DM3189 + Dasatinib = compound: C1CN(CCN1)C2=CC=C(C=C2)C3=CN4C(=C(C=N4)C5=CC=NC6=CC=CC=C56)N=C3 [DM3189] + Cc1nc(Nc2ncc(C(=O)Nc3c(C)cccc3Cl)s2)cc(N2CCN(CCO)CC2)n1 [Dasatinib] (partner 0.075 µM)
How it was run: as §1

DM3189 + Phenformin = compound: C1CN(CCN1)C2=CC=C(C=C2)C3=CN4C(=C(C=N4)C5=CC=NC6=CC=CC=C56)N=C3 [DM3189] + N=C(N)NC(=N)NCCc1ccccc1 [Phenformin] (partner 250 µM)
How it was run: as §1

DM3189 + Trametinib = compound: C1CN(CCN1)C2=CC=C(C=C2)C3=CN4C(=C(C=N4)C5=CC=NC6=CC=CC=C56)N=C3 [DM3189] + CC(=O)Nc1cccc(-n2c(=O)n(C3CC3)c(=O)c3c(Nc4ccc(I)cc4F)n(C)c(=O)c(C)c32)c1 [Trametinib] (partner 0.02 µM)
How it was run: as §1

DM3189 + Palbociclib = compound: C1CN(CCN1)C2=CC=C(C=C2)C3=CN4C(=C(C=N4)C5=CC=NC6=CC=CC=C56)N=C3 [DM3189] + CC(=O)c1c(C)c2cnc(Nc3ccc(N4CCNCC4)cn3)nc2n(C2CCCC2)c1=O [Palbociclib] (partner 0.5 µM)
How it was run: as §1

DM3189 + AZD7762 = compound: C1CN(CCN1)C2=CC=C(C=C2)C3=CN4C(=C(C=N4)C5=CC=NC6=CC=CC=C56)N=C3 [DM3189] + NC(=O)Nc1cc(-c2cccc(F)c2)sc1C(=O)N[C@H]1CCCNC1 [AZD7762] (partner 0.2 µM)
How it was run: as §1

DM3189 + Pemetrexed = compound: C1CN(CCN1)C2=CC=C(C=C2)C3=CN4C(=C(C=N4)C5=CC=NC6=CC=CC=C56)N=C3 [DM3189] + Nc1nc2[nH]cc(CCc3ccc(C(=O)N[C@@H](CCC(=O)O)C(=O)O)cc3)c2c(=O)[nH]1 [Pemetrexed] (partner 0.2 µM)
How it was run: as §1

DM3189 + Decitabine = compound: C1CN(CCN1)C2=CC=C(C=C2)C3=CN4C(=C(C=N4)C5=CC=NC6=CC=CC=C56)N=C3 [DM3189] + Nc1ncn([C@H]2C[C@H](O)[C@@H](CO)O2)c(=O)n1 [Decitabine] (partner 2 µM)
How it was run: as §1

DM3189 + Vorinostat = compound: C1CN(CCN1)C2=CC=C(C=C2)C3=CN4C(=C(C=N4)C5=CC=NC6=CC=CC=C56)N=C3 [DM3189] + O=C(CCCCCCC(=O)Nc1ccccc1)NO [Vorinostat] (partner 1 µM)
How it was run: as §1

DM3189 + Olaparib = compound: C1CN(CCN1)C2=CC=C(C=C2)C3=CN4C(=C(C=N4)C5=CC=NC6=CC=CC=C56)N=C3 [DM3189] + O=C(c1cc(Cc2n[nH]c(=O)c3ccccc23)ccc1F)N1CCN(C(=O)C2CC2)CC1 [Olaparib] (partner 8 µM)
How it was run: as §1

NCI-H1623 was tested. Which relative viability (DM3189; 0.08 µM) did it give?
The relative viability was 1.05.

And the relative viability (DM3189; 0.253 µM)?
Its relative viability is 0.874.

And the relative viability (DM3189; 0.8 µM)?
Its relative viability is 0.92.

What about the relative viability (DM3189; 2.53 µM) of the same cell line?
The relative viability was 0.979.

And the relative viability (DM3189 + Luminespib; first compound 0.08 µM)?
The relative viability was 0.482.

What about the relative viability (DM3189 + Luminespib; first compound 0.253 µM) of the same cell line?
The relative viability was 0.494.

And the relative viability (DM3189 + Luminespib; first compound 0.8 µM)?
Its relative viability is 0.313.

And the relative viability (DM3189 + Luminespib; first compound 2.53 µM)?
The relative viability was 0.537.

And the relative viability (DM3189 + Foretinib; first compound 0.08 µM)?
Its relative viability is 0.939.

And the relative viability (DM3189 + Foretinib; first compound 0.253 µM)?
Its relative viability is 0.901.

And the relative viability (DM3189 + Foretinib; first compound 0.8 µM)?
The relative viability was 0.83.

What about the relative viability (DM3189 + Foretinib; first compound 2.53 µM) of the same cell line?
Its relative viability is 0.818.

What about the relative viability (DM3189 + OSI-027; first compound 0.08 µM) of the same cell line?
Its relative viability is 0.517.

What about the relative viability (DM3189 + OSI-027; first compound 0.253 µM) of the same cell line?
Its relative viability is 0.43.

What about the relative viability (DM3189 + OSI-027; first compound 0.8 µM) of the same cell line?
The relative viability was 0.34.

And the relative viability (DM3189 + OSI-027; first compound 2.53 µM)?
Its relative viability is 0.369.

What about the relative viability (DM3189 + Tozasertib; first compound 0.08 µM) of the same cell line?
The relative viability was 0.406.

And the relative viability (DM3189 + Tozasertib; first compound 0.253 µM)?
Its relative viability is 0.426.

What about the relative viability (DM3189 + Tozasertib; first compound 0.8 µM) of the same cell line?
The relative viability was 0.408.

And the relative viability (DM3189 + Tozasertib; first compound 2.53 µM)?
The relative viability was 0.377.

What about the relative viability (DM3189 + Dasatinib; first compound 0.08 µM) of the same cell line?
The relative viability was 0.588.

And the relative viability (DM3189 + Dasatinib; first compound 0.253 µM)?
The relative viability was 0.611.

What about the relative viability (DM3189 + Dasatinib; first compound 0.8 µM) of the same cell line?
The relative viability was 0.456.

And the relative viability (DM3189 + Dasatinib; first compound 2.53 µM)?
Its relative viability is 0.527.

What about the relative viability (DM3189 + Phenformin; first compound 0.08 µM) of the same cell line?
The relative viability was 0.61.

And the relative viability (DM3189 + Phenformin; first compound 0.253 µM)?
The relative viability was 0.528.

And the relative viability (DM3189 + Phenformin; first compound 0.8 µM)?
Its relative viability is 0.46.

What about the relative viability (DM3189 + Phenformin; first compound 2.53 µM) of the same cell line?
Its relative viability is 0.545.

How did the relative viability (DM3189; 0.08 µM) turn out when NCI-H1648 was run?
Its relative viability is 0.798.

What about the relative viability (DM3189; 0.253 µM) of the same cell line?
The relative viability was 0.947.

And the relative viability (DM3189; 0.8 µM)?
The relative viability was 0.962.

And the relative viability (DM3189; 2.53 µM)?
The relative viability was 0.661.

What about the relative viability (DM3189 + Trametinib; first compound 0.08 µM) of the same cell line?
Its relative viability is 0.434.

What about the relative viability (DM3189 + Trametinib; first compound 0.253 µM) of the same cell line?
Its relative viability is 0.51.

What about the relative viability (DM3189 + Trametinib; first compound 0.8 µM) of the same cell line?
Its relative viability is 0.61.

What about the relative viability (DM3189 + Trametinib; first compound 2.53 µM) of the same cell line?
The relative viability was 0.671.

And the relative viability (DM3189 + Palbociclib; first compound 0.08 µM)?
The relative viability was 0.274.

What about the relative viability (DM3189 + Palbociclib; first compound 0.253 µM) of the same cell line?
Its relative viability is 0.226.

What about the relative viability (DM3189 + Palbociclib; first compound 0.8 µM) of the same cell line?
Its relative viability is 0.271.

And the relative viability (DM3189 + Palbociclib; first compound 2.53 µM)?
Its relative viability is 0.364.

And the relative viability (DM3189 + OSI-027; first compound 0.253 µM)?
Its relative viability is 0.272.

And the relative viability (DM3189 + OSI-027; first compound 0.8 µM)?
Its relative viability is 0.227.

And the relative viability (DM3189 + OSI-027; first compound 2.53 µM)?
Its relative viability is 0.28.

What about the relative viability (DM3189 + Tozasertib; first compound 0.253 µM) of the same cell line?
Its relative viability is 0.565.

And the relative viability (DM3189 + Tozasertib; first compound 0.8 µM)?
The relative viability was 0.39.

What about the relative viability (DM3189 + Tozasertib; first compound 2.53 µM) of the same cell line?
The relative viability was 0.464.

What about the relative viability (DM3189 + AZD7762; first compound 0.08 µM) of the same cell line?
The relative viability was 0.681.

What about the relative viability (DM3189 + AZD7762; first compound 0.253 µM) of the same cell line?
The relative viability was 0.592.

What about the relative viability (DM3189 + AZD7762; first compound 0.8 µM) of the same cell line?
Its relative viability is 0.562.

And the relative viability (DM3189 + AZD7762; first compound 2.53 µM)?
The relative viability was 0.576.

What about the relative viability (DM3189 + Pemetrexed; first compound 0.08 µM) of the same cell line?
Its relative viability is 0.893.

What about the relative viability (DM3189 + Pemetrexed; first compound 0.253 µM) of the same cell line?
Its relative viability is 0.615.

What about the relative viability (DM3189 + Pemetrexed; first compound 0.8 µM) of the same cell line?
Its relative viability is 0.596.

And the relative viability (DM3189 + Pemetrexed; first compound 2.53 µM)?
Its relative viability is 0.577.

And the relative viability (DM3189 + Decitabine; first compound 0.08 µM)?
The relative viability was 0.631.

What about the relative viability (DM3189 + Decitabine; first compound 0.253 µM) of the same cell line?
The relative viability was 0.53.

What about the relative viability (DM3189 + Decitabine; first compound 0.8 µM) of the same cell line?
Its relative viability is 0.462.

What about the relative viability (DM3189 + Decitabine; first compound 2.53 µM) of the same cell line?
Its relative viability is 0.438.

What about the relative viability (DM3189 + Vorinostat; first compound 0.08 µM) of the same cell line?
The relative viability was 0.453.

And the relative viability (DM3189 + Vorinostat; first compound 0.253 µM)?
Its relative viability is 0.637.

And the relative viability (DM3189 + Vorinostat; first compound 0.8 µM)?
Its relative viability is 0.421.

And the relative viability (DM3189 + Vorinostat; first compound 2.53 µM)?
The relative viability was 0.391.

And the relative viability (DM3189 + Olaparib; first compound 0.08 µM)?
The relative viability was 1.16.

What about the relative viability (DM3189 + Olaparib; first compound 0.253 µM) of the same cell line?
The relative viability was 0.881.

What about the relative viability (DM3189 + Olaparib; first compound 0.8 µM) of the same cell line?
The relative viability was 0.749.

And the relative viability (DM3189 + Olaparib; first compound 2.53 µM)?
Its relative viability is 0.862.
